Laboratory results as given in patent publication KR20140034898A, “헤테로시클릭 술폰아미드 유도체” (노파르티스 아게, priority 2011, dated 2012).

Assays:
A375 cells [A375 세포] = test: A375 cell viability assay (XTT); format: cell-based; settings: Homo sapiens, A-375, 72 h, 3 days after compound addition
[1] = molecular target: BRAF-MEK-ERK cascade [BRAF-MEK-ERK 캐스케이드]; test: BRAF-MEK-ERK cascade assay (TR-FRET, recombinant enzymes); format: biochemical, human; settings: mean ± SEM, n=3; 100 μM ATP; 45 min pre-incubation, 90 min kinase reaction
A375 P-Erk = A375 P-Erk (In-Cell-Western); format: cell-based; settings: A-375; A375 human melanoma cells, 3 h compound treatment, triplicate; 100% inhibition = reference inhibitor at highest test concentration
[2] = Pharmacokinetics in athymic nude rats; format: in vivo, rat; settings: one-way ANOVA versus Example 1

| SMILES | GI50 (A375 cells [A375 세포]) | IC50 [1] | EC50 (A375 P-Erk) | PK parameters compared with Example 1 [2] |
| --- | --- | --- | --- | --- |
| O=S(=O)(Nc1c(Nc2ccc(I)cc2F)c(F)c(F)c2ccoc12)C1(C[C@H](O)CO)CC1 (single isomer, unassigned) [실시예 1A] | 13.4 nM | 2 ± 0.25 nM | 6.4 nM | 증진된 PK-파라미터 |
| O=S(=O)(Nc1c(Nc2ccc(I)cc2F)c(F)c(F)c2ccoc12)C1(C[C@@H](O)CO)CC1 (single isomer, unassigned) [실시예 1B] | 29.6 nM | 1.6 ± 0.1 nM | 15.6 nM | 증진된 PK-파라미터 |
| O=S(=O)(Nc1c(Nc2ccc(I)cc2F)c(F)c(F)c2ccoc12)C1(CC(O)CO)CC1 (racemic) [실시예 1, 1-(2,3-디히드록시-프로필)-시클로프로판술폰산 [4,5-디플루오로-6-(2-플루오로-4-아이오도-페닐아미노)-벤조푸란-7-일]아미드] | 17.6 nM | 2.1 ± 0.58 nM | 12.2 nM | – |
